Converted amounts (≈) assume the structure as drawn.

These results are taken from ChEMBL document CHEMBL4038262, “Design, synthesis and antibacterial activities of thiouracil derivatives containing acyl thiourea as SecA inhibitors” (Bioorg Med Chem Lett, 2017).

Assay [1] concerns Bacillus amyloliquefaciens. The assay is described as follows: Antibacterial activity against Bacillus amyloliquefaciens at 25 ug/ml after 24 hrs by plate colony counting method relative to control. The format is functional.
Assay [2] concerns Staphylococcus aureus. The assay is described as follows: Antibacterial activity against Staphylococcus aureus at 25 ug/ml after 24 hrs by plate colony counting method relative to control. It is filed as functional.
Assay [3] deals with Bacillus subtilis. Nature of the assay: Antibacterial activity against Bacillus subtilis at 25 ug/ml after 24 hrs by plate colony counting method relative to control. It is filed as functional.
Assay [4] concerns Escherichia coli. Nature of the assay: Inhibition of Escherichia coli BL21.19 SecA at 40 ug/ml after 30 mins by malachite green dye-based assay relative to control.
Assay [5] can be described thus: Inhibition of Escherichia coli BL21.19 SecA after 30 mins by malachite green dye-based assay.
For assay [6], the system named is Staphylococcus aureus. Nature of the assay: Antibacterial activity against Staphylococcus aureus after 24 hrs by plate colony counting method. The format is functional.
In assay [7] the test system is Bacillus subtilis. The assay is described as follows: Antibacterial activity against Bacillus subtilis after 24 hrs by plate colony counting method. It is filed as functional.
In assay [8] the test system is Bacillus amyloliquefaciens. The assay is described as follows: Antibacterial activity against Bacillus amyloliquefaciens after 24 hrs by plate colony counting method. The format is functional.
Assay [9] deals with Escherichia coli. The assay is described as follows: Inhibition of Escherichia coli BL21.19 SecA at 20 ug/ml after 30 mins by malachite green dye-based assay relative to control.

A word on the inhibition: it is the change of the read-out against control, counted positive when it falls. A low value points to little suppression. As to `N#Cc1c(-c2c(Cl)cccc2Cl)nc(SCc2ccc(C(=O)NC(=S)Nc3ccc(Cl)cc3)cc2)[nH]c1=O`, the inhibition at 25 µg/mL in assay [1] was 49%; in the assay with Staphylococcus aureus [2], 68%; with Bacillus subtilis [3], 63%.
For `N#Cc1c(-c2c(Cl)cccc2Cl)nc(SCc2ccc(C(=O)NC(=S)Nc3ccccc3)cc2)[nH]c1=O`, the inhibition at 25 µg/mL in assay [1] was 71%; with Staphylococcus aureus [2], 71%; in the assay on Bacillus subtilis [3], 55%.
The term IC50 denotes the concentration needed to halve the response being measured. Read a low IC50 as greater potency in that assay. A word on the MIC: it is the lowest concentration that inhibits growth of the organism. For the compound `N#Cc1c(-c2ccc(Cl)cc2)nc(SCc2ccc(C(=O)NC(=S)Nc3c(Cl)cccc3Cl)cc2)[nH]c1=O`, the inhibition at 25 µg/mL in [1] was 81%; in the assay on Staphylococcus aureus [2], 81%; in the assay on Bacillus subtilis [3], 80%. This compound also came in with an inhibition in the assay on Escherichia coli [4] of 50%. Further, in assay [5], the IC50 was 38.8 µg/mL (≈ 64.6 µM). In addition, the MIC worked out at 50 µg/mL (≈ 83.2 µM) against Staphylococcus aureus [6], 50 µg/mL (≈ 83.2 µM) with Bacillus subtilis [7] and 25 µg/mL (≈ 41.6 µM) in [8].
Turning to `N#Cc1c(-c2ccccc2Cl)nc(SCc2ccc(C(=O)NC(=S)Nc3c(Cl)cccc3Cl)cc2)[nH]c1=O`, the inhibition at 25 µg/mL was 89% in assay [1], 79% in the assay with Staphylococcus aureus [2] and 92% in the assay with Bacillus subtilis [3]. This compound also had an inhibition in the assay with Escherichia coli [9] of 50%. The IC50 in assay [5] came out at 16 µg/mL (≈ 26.6 µM). In addition, the MIC against Staphylococcus aureus [6] is 50 µg/mL (≈ 83.2 µM); in the assay on Bacillus subtilis [7], 50 µg/mL (≈ 83.2 µM); in assay [8], 25 µg/mL (≈ 41.6 µM).
As to `N#Cc1c(-c2ccccc2)nc(SCc2ccc(C(=O)NC(=S)Nc3ccc(Cl)cc3)cc2)[nH]c1=O`, the inhibition at 25 µg/mL in assay [1] stood at 79%; in the assay with Staphylococcus aureus [2] it was 64%; in the assay on Bacillus subtilis [3] it was 71%. In addition, the inhibition in the assay on Escherichia coli [4] was found to be 50%. The half-maximal inhibitory concentration (IC50) in assay [5] amounted to 39.4 µg/mL (≈ 74.1 µM).
As to `Cc1ccccc1NC(=S)NC(=O)c1ccc(CSc2nc(-c3c(Cl)cccc3Cl)c(C#N)c(=O)[nH]2)cc1`, the inhibition at 25 µg/mL in assay [1] is 50%; in the assay on Staphylococcus aureus [2], 64%; in the assay on Bacillus subtilis [3], 62%.
In the case of `N#Cc1c(-c2ccc(Cl)cc2)nc(SCc2ccc(C(=O)NC(=S)Nc3ccccc3)cc2)[nH]c1=O`, the inhibition at 25 µg/mL in assay [1] turned out to be 70%; in the assay on Staphylococcus aureus [2] it was 67%; in the assay with Bacillus subtilis [3] it was 63%.
For `N#Cc1c(-c2ccccc2Cl)nc(SCc2ccc(C(=O)NC(=S)Nc3ccc(Cl)cc3)cc2)[nH]c1=O`, in that order: 63%, 68% and 68%.
Regarding `Cc1ccccc1NC(=S)NC(=O)c1ccc(CSc2nc(-c3ccc(Cl)cc3)c(C#N)c(=O)[nH]2)cc1`, the values for the inhibition at 25 µg/mL (in assay [1]; in the assay on Staphylococcus aureus [2]; in the assay with Bacillus subtilis [3]) were 61%, 58% and 78%, respectively.
For `N#Cc1c(-c2ccccc2)nc(SCc2ccc(C(=O)NC(=S)Nc3c(Cl)cccc3Cl)cc2)[nH]c1=O`, in that order: 81%, 70% and 84%.
Taken in the same sequence, the figures for `Cc1ccccc1NC(=S)NC(=O)c1ccc(CSc2nc(-c3ccccc3Cl)c(C#N)c(=O)[nH]2)cc1` were 78%, 71% and 82%.
For `N#Cc1c(-c2ccc(-c3ccccc3)cc2)nc(SCc2ccc(C(=O)NC(=S)Nc3ccccc3)cc2)[nH]c1=O`, the inhibition at 25 µg/mL in [1] stood at 62%; in the assay on Staphylococcus aureus [2], 83%; in the assay on Bacillus subtilis [3], 72%. The MIC (against Staphylococcus aureus [6]; in the assay with Bacillus subtilis [7]; in assay [8]) was 50 µg/mL (≈ 87.2 µM) each time.
`N#Cc1c(-c2ccc(-c3ccccc3)cc2)nc(SCc2ccc(C(=O)NC(=S)Nc3c(Cl)cccc3Cl)cc2)[nH]c1=O`: the inhibition at 25 µg/mL turned out to be 71% in assay [1], 80% in the assay on Staphylococcus aureus [2] and 69% with Bacillus subtilis [3]. Also, the MIC (against Staphylococcus aureus [6]; in the assay with Bacillus subtilis [7]; in [8]) was 50 µg/mL (≈ 77.8 µM) in each case.
For `CCn1cc(C(=O)O)c(=O)c2cc(F)c(N3CCNCC3)cc21` [NORFLOXACIN], the inhibition at 25 µg/mL turned out to be 84% in assay [1], 78% in the assay with Staphylococcus aureus [2] and 89% with Bacillus subtilis [3]. In addition, the MIC (against Staphylococcus aureus [6]; with Bacillus subtilis [7]; in assay [8]) was 25 µg/mL (≈ 78.3 µM) in each case.
As to `N#Cc1c(-c2ccccc2)nc(SCc2ccc(C(=O)NC(=S)Nc3ccccc3)cc2)[nH]c1=O`, the inhibition at 25 µg/mL in assay [1] turned out to be 70%; in the assay on Staphylococcus aureus [2], 67%; in the assay on Bacillus subtilis [3], 63%.
For `Cc1ccccc1NC(=S)NC(=O)c1ccc(CSc2nc(-c3ccccc3)c(C#N)c(=O)[nH]2)cc1`, the inhibition at 25 µg/mL in assay [1] turned out to be 69%; with Staphylococcus aureus [2] it was 63%; in the assay on Bacillus subtilis [3], 78%.
`Cc1ccccc1NC(=S)NC(=O)c1ccc(CSc2nc(-c3ccc(Cl)cc3Cl)c(C#N)c(=O)[nH]2)cc1`: the inhibition at 25 µg/mL in [1] came out at 55%; in the assay on Staphylococcus aureus [2], 66%; with Bacillus subtilis [3], 54%.
As for `N#Cc1c(-c2ccccc2Cl)nc(SCc2ccc(C(=O)NC(=S)Nc3ccccc3)cc2)[nH]c1=O`, the inhibition at 25 µg/mL is 67% in assay [1], 80% in the assay on Staphylococcus aureus [2] and 87% in the assay with Bacillus subtilis [3]. In the assay with Escherichia coli [9], this compound registered an inhibition of 50%. In addition, the IC50 in assay [5] was found to be 17.9 µg/mL (≈ 33.6 µM). Moreover, the MIC in the assay on Staphylococcus aureus [6] amounted to 50 µg/mL (≈ 94 µM); in the assay on Bacillus subtilis [7] it was 25 µg/mL (≈ 47 µM); in [8] it was 25 µg/mL (≈ 47 µM).
As to `N#Cc1c(-c2ccc(-c3ccccc3)cc2)nc(SCc2ccc(C(=O)NC(=S)Nc3ccc(Cl)cc3)cc2)[nH]c1=O`, the inhibition at 25 µg/mL in assay [1] is 75%; in the assay with Staphylococcus aureus [2], 76%; with Bacillus subtilis [3], 56%.
Taken in the same sequence, the figures for `N#Cc1c(-c2ccc(Cl)cc2)nc(SCc2ccc(C(=O)NC(=S)Nc3ccc(Cl)cc3)cc2)[nH]c1=O` were 61%, 62% and 91%.
For `Cc1ccccc1NC(=S)NC(=O)c1ccc(CSc2nc(-c3ccc(-c4ccccc4)cc3)c(C#N)c(=O)[nH]2)cc1`, in that order: 73%, 67% and 78%.
For `N#Cc1c(-c2ccc(Cl)cc2Cl)nc(SCc2ccc(C(=O)NC(=S)Nc3ccc(Cl)cc3)cc2)[nH]c1=O`, the inhibition at 25 µg/mL in assay [1] was found to be 74%; in the assay with Staphylococcus aureus [2], 69%; in the assay on Bacillus subtilis [3], 74%.
Consider `N#Cc1c(-c2ccc(Cl)cc2Cl)nc(SCc2ccc(C(=O)NC(=S)Nc3c(Cl)cccc3Cl)cc2)[nH]c1=O`, for which the inhibition at 25 µg/mL in assay [1] was determined as 72%; in the assay on Staphylococcus aureus [2], 68%; in the assay on Bacillus subtilis [3], 69%. In addition, the MIC (in the assay with Staphylococcus aureus [6]; in the assay on Bacillus subtilis [7]; in [8]) was 50 µg/mL (≈ 78.7 µM) throughout.
Take `N#Cc1c(-c2c(Cl)cccc2Cl)nc(SCc2ccc(C(=O)NC(=S)Nc3c(Cl)cccc3Cl)cc2)[nH]c1=O`: the inhibition at 25 µg/mL in assay [1] is 53%; in the assay with Staphylococcus aureus [2] it was 79%; with Bacillus subtilis [3] it was 73%. For the same compound, the MIC (in the assay with Staphylococcus aureus [6]; in the assay on Bacillus subtilis [7]; in [8]) was 50 µg/mL (≈ 78.7 µM) each time.
`N#Cc1c(-c2ccc(-c3ccccc3)cc2)nc(SCc2ccc(CSc3nc(-c4ccc(-c5ccccc5)cc4)c(C#N)c(=O)[nH]3)cc2)[nH]c1=O`: the inhibition at 25 µg/mL in assay [1] was 87%; in the assay on Staphylococcus aureus [2], 79%; with Bacillus subtilis [3] it was 44%. Moreover, the IC50 in [5] is 20.8 µg/mL (≈ 29.2 µM). Further, the values for the MIC (with Staphylococcus aureus [6]; in the assay on Bacillus subtilis [7]; in [8]) were 25 µg/mL (≈ 35.1 µM), 50 µg/mL (≈ 70.1 µM) and 12.5 µg/mL (≈ 17.5 µM), respectively.
On to `N#Cc1c(-c2ccc(Cl)cc2Cl)nc(SCc2ccc(C(=O)NC(=S)Nc3ccccc3)cc2)[nH]c1=O`, for which the figures for the inhibition at 25 µg/mL (in [1]; in the assay on Staphylococcus aureus [2]; with Bacillus subtilis [3]) were 56%, 79% and 66%, respectively.
